Data as given in US10213412B2, “Modulators of CA2+ release-activated CA2+ (CRAC) channels and pharmaceutical uses thereof” (Vivreon Biosciences, LLC, priority 2015, dated 2019).
Where two headings read alike, the source gives them in different places. Blank lines part the entries; values can stand above or below the molecule they belong to.

Columns and labels:
MDR1 = test: MDCK-MDR1 permeability assay; format: in vitro ADME, canine; settings: dog
Method: Compound 1 was evaluated for permeability across polarized Madin-Darby canine kidney-multidrug resistance protein 1 (MDCK-MDR1) epithelial monolayers. MDCK-MDR1 cells grown in tissue culture flasks were trypsinized, suspended in medium, and the suspensions were applied to wells of a Millipore 96 well Caco-2 plate (FIG. 7). The cells were allowed to grow and differentiate for five days and confluence was confirmed. For Apical to Basolateral (A→B) permeability, Compound 1 was added to the apical (A) side and amount of permeation is determined on the basolateral (B) side; for Basolateral to Apical (B→A) permeability, the Compound 1 was added to the B side and the amount of permeation was determined on the A side and analyzed by LC/MS/MS.

[1] = Concentrations of Compound 1 in mouse plasma and brain after s.c. administration; format: in vivo; settings: C57/BL6 mice
Method: Compound 1 was administered s.c. to C57/BL6 mice and plasma and brain samples were processed and analyzed using standard bioanalytical protocols. Three mice were sacrificed at time points: 15 min, 1 hr and 4 hr. Blood was collected into lithium heparin tubes for plasma collection. Brain samples were homogenized prior to extraction using a FastPrep-24 tissue homogenizer. Plasma and brain homogenates were extracted by protein precipitation with acetonitrile containing verapamil as internal standard (IS). After vortexing for 10 min, samples were transferred to a 96 well filter plate and filtered using a centrifuge. Filtrates were analyzed by LC/MS/MS. The compounds were quantified with software using calibration curves. Compound 1 plasma (▪) and brain (•) concentrations are presented.

[2] = system: experimental autoimmune encephalomyelitis; test: in vivo; format: in vivo, C57/Bl6 mice
in vivo = format: in vivo, C57/Bl6 mice; settings: C57/Bl6, mouse, in vivo, ip, 5 mg/kg
[3] = In vivo pharmacokinetics in rat; parameters: species or system Sprague Dawley rat
Method: Compound 1 was administered p.o. (▪) or i.v. (•) to a nine week old male Sprague Dawley rat (FIG. 6). For survival blood collection, 250-350 μL blood samples were collected via jugular vein (JUGVEIN) cannula at proposed time points per study protocol and recorded. Blood was collected pre-dose and at 15 & 30 min, 1, 2, 4, 12, 24 & 48 hr after Compound 1 administration. Blood was collected into lithium heparin tubes for plasma collection. Calibration standards and study samples were processed for LC/MS/MS analysis by precipitating 40 μL of each sample with two volumes of ice cold Internal Standard Solution (acetonitrile containing 50 ng/mL of dextromethorphan, 5 ng/mL diphenhydramine and 125 ng/mL diclofenac). The precipitated samples were centrifuged at 6100 g for 30 minutes. Following centrifugation, an aliquot of each supernatant was transferred to an autosampler plate and diluted with an equal volume of 0.2% formic acid in water. Processed study samples were analyzed using LC/MS/MS.

[4] = target: T1, recombinant human Orai1 and recombinant human STIM1 (Homo sapiens, UniProt Q96D31); test: Ca^2+ signaling assay in HEK293 cells transfected with Orai1 and STIM1 (Fura-2); format: cell-based; settings: HEK293 transfected with Orai1/STIM1, 10 μM Compound 1, single cell Fura-2 fluorescence
T1 construct: expressed in transfected cells; host or cells: human embryonic kidney 293 cells
Method: FIG. 8 depicts Compound 1 as a modulator of store-operated Ca^2+ (SOC) channels. The white rectangle represents a 2 mM external Ca^2+ concentration solution, the hashed rectangle represents a 0 mM external Ca2+ concentration solution, the slashed rectangle represents a 0 mM external Ca^2+ concentration solution with 2 μM thapsigargin, the grey rectangle represents 10 μM Compound 1 in a 2 mM external Ca^2+ concentration solution, and the black rectangle represents […] 2-aminoethoxydiphenyl borate in a 2 mM external Ca^2+ concentration solution. Cell #1 and Cell #2 represent two separate human embryonic kidney 293 cells successfully transfected with recombinant human Orai1 and recombinant human STIM1.
Compound 1 was screened for inhibition of Ca^2+ signaling by examining the intracellular Ca^2+ response in the presence of Compound 1 (FIG. 8). First, human embryonic kidney 293 cells were transfected by lipofectamine with recombinant human Orai1 and recombinant human STIM1. Recombinant human Orai1 was genetically tagged with enhanced green fluorescent protein to label successfully transfected cells. Cells were plated on coverslips and loaded with 2 μM of the Ca^2+ indicator dye, Fura-2, to allow for detection of intracellular Ca^2+ concentration. Cellular fluorescence was determined by alternating fluorescent excitation at 340 and 380 nanometers.

Human Jurkat T cells = test: Cancer cell viability assay, Jurkat; format: cell-based; settings: 120 hours, flow cytometric light scatter
Method: (§1) Compound 2 was screened for inhibition of cancer cell survival by quantifying cellular death in the presence of Compound 2 (FIG. 4). Human Jurkat T cells (▪), an immortalized line of human acute T cell lymphoblastic leukemia; Ramos B cells (•), an immortalized line of human Burkitt's lymphoma; and primary human T cells (▴) isolated from the peripheral blood of a healthy, consenting donor were cultured in the presence Compound 2 to test for cellular viability and cell death. Cells were cultured in standard culture conditions, and primary human T cells were also activated with 4 μg/mL immobilized anti-CD3 (clone: OKT3) and 1 μg/mL soluble anti-CD28 (clone: CD28.2) antibodies and 0.2 ng/mL recombinant human IL-2. Cell viability was assayed through flow cytometric analysis of cellular light scatter following 72 hours for primary human or 120 hours for Jurkat and Ramos in standard culture conditions. Viable cell percentage was analyzed as the percent decrease of viable cells compared to a control well with no Compound 2 using a standard flow cytometry lymphocyte analysis gate of forward and side scatter.

[5] = system: Ca^2+ influx in human Jurkat T cells; test: Ca^2+ signaling assay in Jurkat T cells activated with PHA-P (Fluo-4, flow cytometer); format: cell-based
Method: (§2) Compound 2 was screened for inhibition of Ca^2+ signaling by examining the intracellular Ca^2+ response in the presence of Compound 2 (FIG. 2). First, the human Jurkat T cells, an immortalized line of human acute T cell lymphoblastic leukemia, were loaded with the 2 μM of the Ca^2+ indicator dye, Fluo-4, to allow for detection of Ca^2+ influx. Jurkat cells were then cultured with Compound 2 and activated with Phytohemagglutinin PHA-P to induce Ca^2+ influx. Immediately after activation, Ca^2+ influx was determined by measuring Jurkat fluorescence using a flow cytometer. Maximal Ca^2+ influx occurred with a 2.9 fold increase in mean Fluo-4 fluorescence intensity compared to an unstimulated control.

Ramos B cells = test: Cancer cell viability assay, Ramos; format: cell-based, human; settings: 120 hours, flow cytometric light scatter
Method: as §1

primary human T cells [6] = test: Cell viability assay, primary human T cells; format: cell-based; settings: primary human T cells from a healthy donor, activated, 72 hours
Method: as §1

primary human T cells [7] = test: Primary human T cell proliferation assay (CFSE dilution); format: cell-based; settings: 72 hours
Method: Compound 2 was screened for inhibition of primary human T cell proliferation by quantifying cellular divisions in the presence of Compound 2 (FIG. 3). First, a 96-well plate was coated with 4 μg/mL anti-CD3 antibody (clone: OKT3) in phosphate buffered saline overnight at 4 degrees Celsius. Primary human T cells were then isolated from the peripheral blood of a healthy, consenting donor using an antibody-based human T cell enrichment protocol. Human T cells were then stained with 1.75 μM of carboxyfluorescein succinimidyl ester, to allow for detection of cellular proliferation. Human T cells were then cultured with Compound 2 and activated with immobilized anti-CD3 and 1 μg/mL soluble anti-CD28 (clone: CD28.2) antibodies and 0.2 ng/mL recombinant human IL-2 to induce cellular proliferation through the NFAT and NF-κB transcription factor pathways. Proliferation was assayed through flow cytometric analysis of carboxyfluorescein succinimidyl ester dilution after 72 hours in standard culture conditions. Maximal proliferation occurred with a 3.9 fold increase in activation index compared to an unstimulated control.

[8] = system: Ca^2+ influx in murine cerebellum CRL-2540 cells (mouse microglia); test: Ca^2+ signaling assay in microglia activated with thapsigargin (Fluo-4); format: cell-based
Method: as §2, with “5).” for “2).”, “murine cerebellum CRL-2540” for “human Jurkat T”, “mouse microglia,” for “human acute T cell lymphoblastic leukemia,”, “CRL-2540” for “Jurkat”, “2 μM thapsigargin” for “Phytohemagglutinin PHA-P”, “0.52” for “2.9”

[9] = male, Sprague Dawley, plasma, iv, 10000 ug/kg
[10] = male, Sprague Dawley, plasma, po, 10000 ug/kg

T1 sequence (Q96D31 whole entry): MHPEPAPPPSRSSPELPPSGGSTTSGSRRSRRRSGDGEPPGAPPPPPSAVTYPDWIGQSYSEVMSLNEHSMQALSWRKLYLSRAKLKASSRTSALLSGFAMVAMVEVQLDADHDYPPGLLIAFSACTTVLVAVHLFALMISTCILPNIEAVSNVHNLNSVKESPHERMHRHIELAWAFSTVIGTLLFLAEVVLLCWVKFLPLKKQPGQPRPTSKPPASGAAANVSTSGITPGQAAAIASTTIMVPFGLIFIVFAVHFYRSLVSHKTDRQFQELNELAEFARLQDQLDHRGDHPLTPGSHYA

efflux ratio (MDR1): 1.6
Papp A→B (MDR1; Apical to Basolateral): 1 ×10⁻⁶ cm/s
Papp B→A (MDR1; Basolateral to Apical): 1.6 ×10⁻⁶ cm/s
concentration at 1 h (in vivo; Compound level in the brain): 38 ± 4 nM
concentration at 1 h (in vivo; Compound level in the plasma): 23.3 ± 3.1 nM
AUC(0-inf) [3, 9]: 706 ng·h/mL
AUC(0-t) [3, 9]: 694 ng·h/mL
Cmax [3, 9]: 837 ng/mL
MRT inf [3, 9]: 1.9 h
Tmax [3, 9]: 0.25 h
clearance [3, 9]: 236 mL/min/kg
half-life ([3]; male, Sprague Dawley, plasma, iv, 10000 ug/kg, i.v., 10000 μg/kg, read-out: Terminal t½ (converted)): 158 min
Vd ([3]; male, Sprague Dawley, plasma, iv, 10000 ug/kg, i.v., 10000 μg/kg, read-out: VSS): 26.9 L/kg
AUC(0-inf) [3, 10]: 747 ng·h/mL
AUC(0-t) [3, 10]: 679 ng·h/mL
Cmax [3, 10]: 126 ng/mL
Tmax [3, 10]: 2 h
bioavailability [3, 10]: 106%
half-life ([3]; male, Sprague Dawley, plasma, po, 10000 ug/kg, p.o., 10000 μg/kg, read-out: T½ (converted)): 196 min
Structure (SMILES): CC(C)(C)c1cc(CCC(=O)c2ccc[nH]2)cc(C(C)(C)C)c1O [Compound 1, 3-(3,5-di-tert-butyl-4-hydroxyphenyl)-1-(1H-pyrrol-2-yl)propan-1-one]
Animal body weight and clinical observations [1]: appeared normal
Recovery of animals in the EAE model ([2]; 5 mg/kg i.p. daily starting on day −1): enhanced recovery
Neuroprotection (clinical score) compared to vehicle-treated mice ([2]; 5 mg/kg i.p. daily, p<0.05): significant neuroprotection
Animal body weight and clinical observations ([3]; p.o. or i.v., 10000 μg/kg): appeared normal
Modulation of store-operated Ca^2+ (SOC) channels [4]: modulates store-operated Ca^2+ (SOC) channels

Structure (SMILES): CC(C)(C)c1cc(CCC(=O)c2[nH]c(Cl)c(Cl)c2Cl)cc(C(C)(C)C)c1O [Compound 2, 3-(3,5-di-tert-butyl-4-hydroxyphenyl)-1-(3,4,5-trichloro-1H-pyrrol-2-yl)propan-1-one]
Cell viability in the presence of compound (Human Jurkat T cells): decreased
IC50 ([5]; Homo sapiens, PHA-P activation, Fluo-4 fluorescence, read-out: IC50 of inhibition of Ca^2+ influx): 3.78 µM
Maximal inhibition of Ca^2+ influx, fold increase compared to an unstimulated control ([5]; PHA-P, maximal influx 2.9 fold): 0.35 fold
Cell viability in the presence of compound (Ramos B cells): decreased
Cell viability in the presence of compound (primary human T cells [6]): did not decrease
Maximal inhibition of proliferation, fold increase in activation index compared to an unstimulated control (primary human T cells [7]; maximal proliferation 3.9 fold): 0.91 fold
IC50 (primary human T cells [7]; Homo sapiens, T-cell, anti-CD3/anti-CD28/IL-2 activation, read-out: IC50 of inhibition of primary human T cell proliferation): 671 nM
Maximal inhibition of Ca^2+ influx, fold increase compared to an unstimulated control ([8]; CRL-2540, thapsigargin, maximal influx 0.52 fold): 0.19 fold
IC50 ([8]; Mus musculus, CRL-2540 microglia, 2 μM thapsigargin, Fluo-4, read-out: IC50 of inhibition of Ca^2+ influx): 10.9 µM
